Experimental findings from patent publication US20140051679A1, “KINASE INHIBITORS AND METHOD OF TREATING CANCER WITH SAME” (UNIVERISTY HEALTH NETWORKS, priority 2011, published 2014) are described below.

Experiment [1] deals with PA-1 ovarian cancer cells. The experiment is described as follows: Cell growth inhibition, Sulforhodamine B assay, PA-1. It is filed as cell-based. Particulars: 120 h, 5 days culture, SRB assay, read-out: Cell Line GI50 Range PA-1. Background: Sulforhodamine B stains cellular protein and so reports cell mass.
The next experiment deals with T1, human TTK (Homo sapiens, UniProt P33981).
T1 construct: amino terminal GST fusion of full length human TTK; purchased Invitrogen
T1 sequence (P33981 1-857): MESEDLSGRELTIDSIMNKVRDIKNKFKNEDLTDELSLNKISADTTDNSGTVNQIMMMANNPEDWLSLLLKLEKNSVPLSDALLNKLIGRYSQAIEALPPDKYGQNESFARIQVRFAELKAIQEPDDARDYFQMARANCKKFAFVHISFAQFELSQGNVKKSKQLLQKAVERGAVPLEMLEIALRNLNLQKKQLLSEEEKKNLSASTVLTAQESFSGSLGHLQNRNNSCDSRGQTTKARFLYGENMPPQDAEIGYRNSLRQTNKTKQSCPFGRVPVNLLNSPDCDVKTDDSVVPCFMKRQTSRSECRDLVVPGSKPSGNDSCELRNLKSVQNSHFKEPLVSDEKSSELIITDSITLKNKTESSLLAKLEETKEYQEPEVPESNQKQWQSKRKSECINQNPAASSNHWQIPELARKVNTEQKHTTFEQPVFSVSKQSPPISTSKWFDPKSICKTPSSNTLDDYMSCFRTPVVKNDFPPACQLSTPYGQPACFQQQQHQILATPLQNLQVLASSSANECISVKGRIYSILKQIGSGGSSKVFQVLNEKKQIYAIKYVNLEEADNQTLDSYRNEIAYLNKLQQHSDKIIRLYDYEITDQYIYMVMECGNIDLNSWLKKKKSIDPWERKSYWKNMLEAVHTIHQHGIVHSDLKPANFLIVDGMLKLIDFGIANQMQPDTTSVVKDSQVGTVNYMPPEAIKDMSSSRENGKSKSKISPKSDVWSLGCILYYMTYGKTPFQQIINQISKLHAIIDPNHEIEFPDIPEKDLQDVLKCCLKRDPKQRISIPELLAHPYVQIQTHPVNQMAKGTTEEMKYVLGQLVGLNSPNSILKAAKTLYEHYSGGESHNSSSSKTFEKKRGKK
The experiment is described as follows: TTK inhibition assay (indirect ELISA). It is filed as biochemical. Particulars: GST-TTK 0.68 nM, 16 μM ATP; read-out: IC50 Ranges TTK. In general terms: An ELISA detects its analyte on a solid surface through an enzyme-linked reagent.

Experiment [2] concerns HCT116 colon cancer cells. Briefly: Cell growth inhibition, Sulforhodamine B assay, HCT116. The format is cell-based. The following applies: Homo sapiens, HCT-116, 120 h, 5 days culture, SRB assay, read-out: Cell Line GI50 Range HCT116.
The next experiment addresses T2, Aurora B (Homo sapiens, UniProt Q96GD4).
T2 construct: purchased Invitrogen PV3970
The experiment is described as follows: Aurora B inhibition assay (Z-Lyte). The format is biochemical. Particulars: 28 nM Aurora B, 128 μM ATP; read-out: IC50 Ranges Aurora B. The method, then:
Aurora B inhibition was determined using the Z-Lyte assay kit from Invitrogen. The assay was performed using the recommended manufacturer's instructions with 128 μM ATP and 28 nM Aurora B (Invitrogen cat #PV3970). The % inhibition values were determined according to the manufacturer's directions and IC50 values were obtained using a non-linear 4 point logistic curve fit (XLfit4, IDBS)

The target in another experiment is T3, human PLK4 (Homo sapiens, UniProt O00444).
T3 construct: amino terminal GST fusion of residues 1-391 of human PLK4; made in house; host or cells: E. coli
T3 sequence (O00444 1-391): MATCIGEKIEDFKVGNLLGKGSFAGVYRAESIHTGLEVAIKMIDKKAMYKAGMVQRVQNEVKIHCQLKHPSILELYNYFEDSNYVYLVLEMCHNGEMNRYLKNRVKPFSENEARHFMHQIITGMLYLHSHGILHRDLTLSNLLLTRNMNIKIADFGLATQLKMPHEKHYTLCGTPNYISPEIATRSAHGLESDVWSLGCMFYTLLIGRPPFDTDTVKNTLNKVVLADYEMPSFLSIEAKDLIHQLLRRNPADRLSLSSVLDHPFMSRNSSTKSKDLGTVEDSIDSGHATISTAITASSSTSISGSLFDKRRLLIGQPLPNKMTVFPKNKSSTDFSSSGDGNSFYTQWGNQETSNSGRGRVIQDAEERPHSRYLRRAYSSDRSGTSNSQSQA
The experiment is described as follows: PLK4 inhibition assay (indirect ELISA). It is filed as biochemical. Particulars: GST-PLK4 4 nM, 15 μM ATP; read-out: IC50 Ranges PLK4. The procedure, abridged:
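Compounds were tested either at a single 10 μM dose or across 10-point titrations (typically 0.5 to 0.001 μM), preincubated 15 min with 4 nM GST-PLK4 (human 1-391, dephosphorylated) before 15 μM ATP was added. MBP substrate phosphorylation over 30 min, pH 7.5 HEPES/MgCl2 buffer, read by HRP/TMB ELISA (450 nm). % inhibition vs. high-activity control; IC50 by logistic fit.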

A further experiment relates to HT29 colon cancer cells. Briefly: Cell growth inhibition, Sulforhodamine B assay, HT29. The following applies: Homo sapiens, HT-29, 120 h, 5 days culture, SRB assay, read-out: Cell Line GI50 Range HT29. The format is cell-based.
Experiment [3] concerns MDA-MB-231 breast cancer cells. The experiment is described as follows: Cell growth inhibition, Sulforhodamine B assay, MDA-MB-231. It is filed as cell-based. The following applies: Homo sapiens, 120 h, 5 days culture, SRB assay, read-out: Cell Line GI50 Range MDA-MB-231.
In experiment [4] the test system is MDA-MB-468 breast cancer cells. Briefly: Cell growth inhibition, Sulforhodamine B assay, MDA-MB-468. The format is cell-based. Particulars: Homo sapiens, 120 h, 5 days culture, SRB assay, read-out: Cell Line GI50 Range MDA-MB-468.
In experiment [5] the test system is Colon tumor initiating cells (TICs), 12 colon. Briefly: Colon tumor-initiating cell growth inhibition (Alamar Blue). The following applies: 216 h, 9 days, read-out: GI50 range 12 colon. It is filed as cell-based.
Experiment [6] has as its system OVCAR-3 ovarian cancer cells. Briefly: Cell growth inhibition, Sulforhodamine B assay, OVCAR-3. The format is cell-based. The following applies: Homo sapiens, 120 h, 5 days culture, SRB assay, read-out: Cell Line GI50 Range OVCAR-3.
Description: Breast cancer cells (MDA-MB-231, MDA-MB-468), colon cancer cells (HCT116, HT29) and ovarian cancer cells (PA-1, OVCAR-3) were seeded (1000 to 4000 in 80 μl per well depending on the cell growth rate) into 96 well plates 24 hours before compound overlay. Compounds were prepared as 10 mM stock solutions in 100% DMSO which were diluted with DMEM (Dulbecco's Modified Eagle's Medium) cell growth Medium (Invitrogen, Burlington, ON, Canada) containing 10% FBS (Fetal Bovine Serum) to concentrations ranging from 50 nM to 250 μM. Aliquots (20 μl) from each concentration were overlaid to 80 μl of the pre-seeded cells in the 96 well plates to make final concentrations of 10 nM to 50 μM. The cells were cultured for 5 days before the Sulforhodamine B assay (SRB) was performed to determine the compound's cell growth inhibition activity.
Sulforhodamine B (purchased from Sigma, Oakville, ON, Canada) is a water-soluble dye that binds to the basic amino acids of the cellular proteins. Thus, colorimetric measurement of the bound dye provides an estimate of the total protein mass that is related to the cell number. the cells are fixed in situ by gently aspirating off the culture media and adding 50 μl ice cold 10% Trichloroacetic Acid (TCA) per well and incubate at 4° C. for 30-60 min, The plates are washed with water five times and allowed to air dry for 5 min. Addition of 50 μl 0.4% (w/v) SRB solution in 1% (v/v) acetic acid to each well and incubatation for 30 min at RT completes the staining reaction. Following staining, plates are washed four times with 1% acetic acid to remove unbound dye and then allowed to air dry for 5 min. The stain is solubilized with 100 μl of 10 mM Tris pH 10.5 per well. Absorbance is read at 570 nm.
The percentage (%) of relative growth inhibition was calculated by comparing to DMSO treated only cells (100%). […] The GI50 was calculated using GraphPad PRISM software (GraphPad Software, Inc., San Diego, Calif., USA).
Experiment [7] relates to Ovarian TICs, 2393A ovarian. The experiment is described as follows: Ovarian tumor-initiating cell growth inhibition (Alamar Blue). The format is cell-based. Particulars: 144 h, 6 days, read-out: GI50 range 2393A ovarian. Background: The colour change of resazurin is a common sign of viable cells or microbes.
Excerpt: Materials and Methods: Non-tissue or tissure cultured treated T-75 flask and 96-well plates were purchased from VWR. Vitamin B-27 supplement, MEM NEAA (minimum essential medium non essential amino acids), sodium pyruvate, L-glutamine, N2 supplement, penicillin-streptomycin and fungizone/amphotericin B were obtained from Invitrogen. Lipid mixture, heparin and EGF were purchased from Sigma; bFGF from BD Biosciences. Colon tumor initiating cells (TICs) were routinely maintained using non-tissue cultured treated T-75 flasks in DMEM:F12 medium containing 0.2XB-27 supplement, 4 ug/ml heparin, 1XMEM NEAA, 1× sodium pyruvate, 1 mM glutamine, 10 pg/ul bFGF, 20 pg/ul EGF, 1×N2 supplement, lipid mixture, penicillin-streptomycin and fungizone/amphotericin B. Ovarian TICs were routinely maintained using tissue cultured treated T-75 flasks in DMEM:F12 medium containing 1XB-27 supplement, 4 ug/ml heparin, 20 pg/ul bFGF, 20 pg/ul EGF and penicillin-streptomycin.
Compounds described herein were dissolved in DMSO and further diluted in cell culture medium for GI50 determination. Colon TICs were trypsinized and seeded into non-tissue cultured treated 96-well plates with 4,000 cells/well. After 24 h, compound was added into the cell culture at different concentrations, and the final concentration of DMSO was adjusted to 0.1%. Cells were then cultured at 37° C. for 9 days. Ovarian TICs were trypsinized and seeded into tissue cultured treated 96-well plates with 1,000 cells/well. After 24 h, compound was added into the cell culture at different concentrations, and the final concentration of DMSO was adjusted to 0.1%. Cells were then cultured at 37° C. for 6 days. Cell viability was assessed by Alamar Blue assay: 10 ul of Alamar Blue was added into each well. After 4 hours incubation at 37° C., fluorescence was recorded at excitation 544 and emission 590. GI50 (Growth inhibition) was calculated using GraphPad Prism 4.0 software.

Some results are limits rather than exact numbers.

T2 sequence (Q96GD4 whole entry): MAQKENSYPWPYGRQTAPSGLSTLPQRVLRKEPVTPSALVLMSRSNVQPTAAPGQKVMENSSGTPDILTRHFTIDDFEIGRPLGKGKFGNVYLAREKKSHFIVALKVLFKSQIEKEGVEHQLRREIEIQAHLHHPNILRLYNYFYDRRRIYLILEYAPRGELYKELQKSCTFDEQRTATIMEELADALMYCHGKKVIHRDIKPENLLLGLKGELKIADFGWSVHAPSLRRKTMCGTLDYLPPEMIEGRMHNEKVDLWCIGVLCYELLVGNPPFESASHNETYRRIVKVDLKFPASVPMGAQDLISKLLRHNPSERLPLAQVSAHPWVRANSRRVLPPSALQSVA

Consider `Cc1ccccc1C(C(=O)Nc1ccc2[nH]nc(-c3ccc(OC4CCN(C)CC4)cc3)c2c1)N1CCCC1` (stereo not drawn) [Example A133, N-(3-(4-((1-methylpiperidin-4-yl)oxy)phenyl)-1H-indazol-5-yl)-2-(pyrrolidin-1-yl)-2-(o-tolyl)acetamide], for which the GI50 (in [1]; in [2]; in the experiment with HT29 colon cancer cells; in experiment [3]; in experiment [4]; in experiment [5]) was not above 5 µM throughout. For the same molecule, the 50% growth inhibitory concentration (GI50) in [6] and in experiment [7] was not above 5 µM in each case. Moreover, the IC50 at human TTK, at Aurora B and on human PLK4 was not above 5 µM in each case.

Take `C[C@@H](NC(=O)c1ccc2[nH]nc(-c3ccc(OC4CCN(C)CC4)cc3)c2c1)c1ccccc1F` [Example A134, (R)—N-(1-(2-fluorophenyl)ethyl)-3-(4-((1-methylpiperidin-4-yl)oxy)phenyl)-1H-indazole-5-carboxamide]: the GI50 (in experiment [1]; in experiment [2]; with HT29 colon cancer cells; in [3]; in [4]; in experiment [5]) was not above 5 µM throughout. The results for the concentration for 50% growth inhibition (GI50) in [6] and in experiment [7] were 5 to 20 µM and not above 5 µM, respectively. Besides, the IC50 at human TTK, at Aurora B and at human PLK4 was not above 5 µM in each case.

Turning to `CN1CCC(Oc2ccc(-c3n[nH]c4ccc(C(=O)NC(c5ccccc5F)C5CC5)cc34)cc2)CC1` (stereo not drawn) [Example A136, N-(cyclopropyl(2-fluorophenyl)methyl)-3-(4-((1-methylpiperidin-4-yl)oxy)phenyl)-1H-indazole-5-carboxamide], the GI50 (in [1]; in experiment [2]; in the experiment on HT29 colon cancer cells; in experiment [3]; in [4]; in experiment [5]) was not above 5 µM in each case. Also, the concentration for 50% growth inhibition (GI50) in [6] and in experiment [7] was not above 5 µM each time. The IC50 on human TTK, on Aurora B and on human PLK4 was not above 5 µM in each case.

Turning to `CN1CCC(Oc2ccc(-c3n[nH]c4ccc(C(=O)N[C@H](CCO)c5ccccc5)cc34)cc2)CC1` [Example A137, (R)—N-(3-hydroxy-1-phenylpropyl)-3-(4-((1-methylpiperidin-4-yl)oxy)phenyl)-1H-indazole-5-carboxamide], the GI50 (in [1]; in [2]; in the experiment on HT29 colon cancer cells; in experiment [3]; in [4]; in experiment [5]) was not above 5 µM each time. The GI50 in experiment [6] and in experiment [7] was not above 5 µM in each case. Also, the half-inhibitory concentration (IC50) at human TTK, on Aurora B and at human PLK4 was not above 5 µM throughout.

As for `CN1CCC(Oc2ccc(-c3n[nH]c4ccc(NC(=O)C(c5ccccc5)C5CC5)cc34)cc2)CC1` (stereo not drawn) [Example A138, 2-cyclopropyl-N-(3-(4-((1-methylpiperidin-4-yl)oxy)phenyl)-1H-indazol-5-yl)-2-phenylacetamide], the GI50 (in experiment [1]; in experiment [2]; in the experiment with HT29 colon cancer cells; in [3]; in experiment [4]; in [5]) was not above 5 µM throughout. The GI50 in experiment [6] and in [7] was not above 5 µM each time. Besides, the IC50 on human TTK, on Aurora B and on human PLK4 was not above 5 µM in each case.

For `CC(C)C(NC(=O)c1ccc2[nH]nc(-c3ccc(OC4CCN(C)CC4)cc3)c2c1)c1ccccc1Cl` (stereo not drawn) [Example A144, N-(1-(2-chlorophenyl)-2-methylpropyl)-3-(4-((1-methylpiperidin-4-yl)oxy)phenyl)-1H-indazole-5-carboxamide], the 50% growth inhibitory concentration (GI50) (in experiment [1]; in [2]; in the experiment on HT29 colon cancer cells; in experiment [3]; in experiment [4]; in experiment [5]) was not above 5 µM in each case. The 50% growth inhibitory concentration (GI50) in [6] and in experiment [7] was not above 5 µM each time. Further, the IC50 on human TTK, at Aurora B and at human PLK4 was not above 5 µM throughout.

In the case of `CN1CCC(Oc2ccc(-c3n[nH]c4ccc(C(=O)NC(c5cccs5)C5CC5)cc34)cc2)CC1` (stereo not drawn) [Example A147], the GI50 (in experiment [1]; in experiment [2]; in the experiment on HT29 colon cancer cells; in experiment [3]; in experiment [4]; in experiment [5]) was not above 5 µM each time. In addition, the concentration for 50% growth inhibition (GI50) in experiment [6] and in experiment [7] was not above 5 µM each time. Besides, the IC50 at human TTK, at Aurora B and on human PLK4 was not above 5 µM throughout.

For `CN1CCC(Oc2ccc(-c3n[nH]c4ccc(C(=O)NC(c5ccccc5Cl)C5CC5)cc34)cc2)CC1` (stereo not drawn) [Example A150, N-((2-chlorophenyl)(cyclopropyl)methyl)-3-(4-((1-methylpiperidin-4-yl)oxy)phenyl)-1H-indazole-5-carboxamide], the 50% growth inhibitory concentration (GI50) (in experiment [1]; in experiment [2]; in the experiment with HT29 colon cancer cells; in experiment [3]; in experiment [4]; in [5]) was not above 5 µM in each case. Besides, the 50% growth inhibitory concentration (GI50) in experiment [6] and in experiment [7] was not above 5 µM each time. Further, the IC50 at human TTK, on Aurora B and at human PLK4 was not above 5 µM each time.

Turning to `COc1ccccc1C(NC(=O)c1ccc2[nH]nc(-c3ccc(OC4CCN(C)CC4)cc3)c2c1)C1CC1` (stereo not drawn) [Example A151, N-(cyclopropyl(2-methoxyphenyl)methyl)-3-(4-((1-methylpiperidin-4-yl)oxy)phenyl)-1H-indazole-5-carboxamide], the 50% growth inhibitory concentration (GI50) (in experiment [1]; in [2]; in the experiment with HT29 colon cancer cells; in experiment [3]; in experiment [4]; in experiment [5]) was not above 5 µM throughout. The GI50 in experiment [6] and in experiment [7] was not above 5 µM in each case. Further, the half-inhibitory concentration (IC50) on human TTK, at Aurora B and on human PLK4 was not above 5 µM each time.
